The source of these data is PubChem BioAssay AID1259407 (Chemical Carcinogenesis Research Information System (CCRIS), 2018).

For this data set, the system named is CCRIS mutagenicity, Ames/micronucleus/aberration tests. The data set can be described thus: CCRIS mutagenicity studies.
Where [1] appears, read: Test System: AMES SALMONELLA TYPHIMURIUM, Strain/Indicator: TA98, Metabolic Activation: NONE, Method: STANDARD PLATE.
[2] abbreviates: Test System: AMES SALMONELLA TYPHIMURIUM, Strain/Indicator: TA98, Metabolic Activation: RAT, LIVER, S-9, AROCLOR 1254, Method: STANDARD PLATE.
[3] abbreviates: Test System: AMES SALMONELLA TYPHIMURIUM, Strain/Indicator: TA98, Metabolic Activation: NONE, Method: PREINCUBATION
Setting [4] is: Test System: AMES SALMONELLA TYPHIMURIUM, Strain/Indicator: TA100, Metabolic Activation: NONE, Method: PREINCUBATION
Setting [5] is: Test System: AMES SALMONELLA TYPHIMURIUM, Strain/Indicator: TA104, Metabolic Activation: NONE, Method: PREINCUBATION

Calls of active or inactive are those of the source. No rule for the calls is given here.

Take `O=CNc1nc(-c2ccc([N+](=O)[O-])cc2)cs1`: the mutagenic call runs as follows: (Test System: AMES SALMONELLA TYPHIMURIUM, Strain/Indicator: TA98, Metabolic Activation: RAT, LIVER, S-9, KC500 OR PHENOBARBITAL, Method: LIQUID SUSPENSION) “active; positive”; (Test System: AMES SALMONELLA TYPHIMURIUM, Strain/Indicator: TA100, Metabolic Activation: RAT, LIVER, S-9, KC500 OR PHENOBARBITAL, Method: LIQUID SUSPENSION) “active; positive”.
For `NC(=O)C1(C(N)=O)OC1C(=O)c1ccccc1` (centres undefined), the mutagenic call (Test System: AMES SALMONELLA TYPHIMURIUM, Strain/Indicator: TA98, Metabolic Activation: NONE, Method: DISK ASSAY) was “inactive; negative”; the mutagenic call under setting [1] was “inactive; negative”; the mutagenic call (Test System: AMES SALMONELLA TYPHIMURIUM, Strain/Indicator: TA98, Metabolic Activation: RAT, LIVER, S-9, AROCLOR 1254, Method: DISK ASSAY) is “inactive; negative”; the mutagenic call under setting [2] was “active; positive”; the mutagenic call (Test System: AMES SALMONELLA TYPHIMURIUM, Strain/Indicator: TA100, Metabolic Activation: NONE, Method: STANDARD PLATE) is “inactive; negative”; the mutagenic call (Test System: AMES SALMONELLA TYPHIMURIUM, Strain/Indicator: TA100, Metabolic Activation: RAT, LIVER, S-9, AROCLOR 1254, Method: STANDARD PLATE) is “inactive; negative”.
Take `CNC(=O)NC`: the mutagenic call runs as follows: under setting [3], “inactive; negative”; (Test System: AMES SALMONELLA TYPHIMURIUM, Strain/Indicator: TA98, Metabolic Activation: RAT, LIVER, S-9, AROCLOR 1254 (5, 15 OR 30%), Method: PREINCUBATION) “inactive; negative”; under setting [4], “inactive; negative”; (Test System: AMES SALMONELLA TYPHIMURIUM, Strain/Indicator: TA100, Metabolic Activation: RAT, LIVER, S-9, AROCLOR 1254 (5, 15 OR 30%), Method: PREINCUBATION) “inactive; negative”; under setting [5], “inactive; negative”; (Test System: AMES SALMONELLA TYPHIMURIUM, Strain/Indicator: TA104, Metabolic Activation: RAT, LIVER, S-9, AROCLOR 1254 (5, 15 OR 30%), Method: PREINCUBATION) “inactive; negative”. For the same compound, the mutagenic call reads like this: (Test System: MOUSE LYMPHOMA, Strain/Indicator: L5178Y (TK+/TK-), Metabolic Activation: NONE, Method: SUSPENSION/PLATE) “inactive; negative”; (Test System: MOUSE LYMPHOMA, Strain/Indicator: L5178Y (TK+/TK-), Metabolic Activation: RAT, LIVER, S-9, AROCLOR 1254, Method: SUSPENSION/PLATE) “inactive; negative”.
Turning to `O[C@H]1[C@H]2O[C@H]2c2c(ccc3c4c5c(cccc5cc23)C=C4)[C@@H]1O`, the mutagenic call was “active; positive” under setting [1]; “active; positive” (Test System: AMES SALMONELLA TYPHIMURIUM, Strain/Indicator: TA98, Metabolic Activation: RAT, LIVER, S-9, AROCLOR 1254 (0.4, 0.8, 1.15 OR 1.5 MG/PLATE), Method: STANDARD PLATE); “active; positive” under setting [2].
As to `CCn1cc(C(=O)O)c(=O)c2cnc(N3CCNCC3)nc21`, the mutagenic call is “inactive; negative” (End Point: In vitro micronucleus, Test System: WTK-1 human lymphoma cells, Metabolic Activation: None); “inactive; negative” under setting [3]; “inactive; negative” (Test System: AMES SALMONELLA TYPHIMURIUM, Strain/Indicator: TA98, Metabolic Activation: RAT LIVER S-9, AROCLOR 1254, Method: PREINCUBATION); “inactive; negative” under setting [4]; “inactive; negative” (Test System: AMES SALMONELLA TYPHIMURIUM, Strain/Indicator: TA100, Metabolic Activation: RAT LIVER S-9, AROCLOR 1254, Method: PREINCUBATION); “active; positive” (Test System: AMES SALMONELLA TYPHIMURIUM, Strain/Indicator: TA102, Metabolic Activation: RAT LIVER S-9, AROCLOR 1254, Method: PREINCUBATION). In addition, the mutagenic call was “inactive; negative” under setting [5]; “inactive; negative” (Test System: AMES SALMONELLA TYPHIMURIUM, Strain/Indicator: TA104, Metabolic Activation: RAT LIVER S-9, AROCLOR 1254, Method: PREINCUBATION); “inactive; negative” (Test System: AMES SALMONELLA TYPHIMURIUM, Strain/Indicator: UHT8414, Metabolic Activation: NONE, Method: PREINCUBATION); “inactive; negative” (Test System: AMES SALMONELLA TYPHIMURIUM, Strain/Indicator: UHT8414, Metabolic Activation: RAT LIVER S-9, AROCLOR 1254, Method: PREINCUBATION).
`CSc1ccc([N+](=O)[O-])cc1[N+](=O)[O-]`: the mutagenic call runs as follows: (Test System: AMES SALMONELLA TYPHIMURIUM, Strain/Indicator: TA100(NR), Metabolic Activation: NONE, Method: PREINCUBATION) “active; positive”; (Test System: AMES SALMONELLA TYPHIMURIUM, Strain/Indicator: TA100/GSH-, Metabolic Activation: NONE, Method: PREINCUBATION) “active; positive”; under setting [4], “active; positive”.
On to `CC(=O)Nc1ccc2c(=O)c(=O)c3cccc4ccc1c2c43`, for which the mutagenic call (Test System: AMES SALMONELLA TYPHIMURIUM, Strain/Indicator: TA98(1,8-DNP6), Metabolic Activation: NONE, Method: STANDARD PLATE) is “inactive; negative”; the mutagenic call (Test System: AMES SALMONELLA TYPHIMURIUM, Strain/Indicator: TA98(1,8-DNP6), Metabolic Activation: RAT, LIVER, S-9, AROCLOR 1254, Method: STANDARD PLATE) is “active; positive”; the mutagenic call under setting [1] was “inactive; negative”; the mutagenic call under setting [2] is “active; positive”; the mutagenic call (Test System: AMES SALMONELLA TYPHIMURIUM, Strain/Indicator: YG1024, Metabolic Activation: NONE, Method: STANDARD PLATE) was “inactive; negative”; the mutagenic call (Test System: AMES SALMONELLA TYPHIMURIUM, Strain/Indicator: YG1024, Metabolic Activation: RAT, LIVER, S-9, AROCLOR 1254, Method: STANDARD PLATE) is “active; positive”.
As for `O=[N+]([O-])c1cc([N+](=O)[O-])c2ccccc2c1`, the mutagenic call was “active; positive” (Test System: AMES SALMONELLA TYPHIMURIUM, Strain/Indicator: TA98, Metabolic Activation: HAMSTER, LIVER, S-9, AROCLOR 1254 (30%), Method: PREINCUBATION); “active; positive” under setting [3]; “active; positive” (Test System: AMES SALMONELLA TYPHIMURIUM, Strain/Indicator: TA98, Metabolic Activation: RAT, LIVER, S-9, AROCLOR 1254 (30%), Method: PREINCUBATION); “active; positive” (Test System: AMES SALMONELLA TYPHIMURIUM, Strain/Indicator: TA100, Metabolic Activation: HAMSTER, LIVER, S-9, AROCLOR 1254 (30%), Method: PREINCUBATION); “active; positive” under setting [4]; “active; positive” (Test System: AMES SALMONELLA TYPHIMURIUM, Strain/Indicator: TA100, Metabolic Activation: RAT, LIVER, S-9, AROCLOR 1254 (30%), Method: PREINCUBATION).
